The target of one data set is SARS-CoV-2 3CL^pro (Severe acute respiratory syndrome coronavirus 2, UniProt P0DTD1). The format is biochemical.
For data set [1] the following is noted: for decrease in CLint compared to 36: human, rat, s9.
The conditions of data set [2]: human, pH 7.4.

Structures are written as SMILES.

For the compound `O=C(Cn1nnc2ccccc21)N(Cc1ccsc1)c1ccc(-c2cccnc2)cc1` [Compound 8, 2-(1H-Benzo[d][1,2,3]triazol-1-yl)-N-(4-(pyridin-3-yl)phenyl)-N-(thiophen-3-ylmethyl)acetamide], the “ligand efficiency (LE)” value at SARS-CoV-2 3CL^pro is reported as 0.27.

Consider `O=C(Cc1cncnc1)N(Cc1cccc(Cl)c1)c1ccc(-c2cn[nH]c2)cc1` [Compound 43, N-[(3-Chlorophenyl)methyl]-N-[4-(1H-pyrazol-4-yl)phenyl]-2-pyrimidin-5-yl-acetamide], for which, in data set [1], the “decrease in CLint compared to 36” value is reported as 4 fold.

Turning to `O=C(Nc1ccc(N(Cc2ccsc2)C(=O)Cn2nnc3ccccc32)cc1)C1CC1` [Compound 1, reference compound], the microsomal clearance entry in data set [1] (microsomes) is on record as “exceptionally high”.

In the case of `O=C(Cn1nnc2ccccc21)N(Cc1cccc(Cl)c1)c1ccc(-c2cn[nH]c2)cc1` [Compound 36, N-(4-(1H-Pyrazol-4-yl)phenyl)-2-(1H-benzo[d][1,2,3]triazol-1-yl)-N-(3-chlorobenzyl)acetamide], in data set [2], the “M1 metabolite formation (oxidation of the benzylic 3-chlorophenyl ring)” value is listed as 60% and the “M3 metabolite formation (cleavage of the 3-chlorobenzyl group)” value was 7%.

Turning to `O=C(Cc1cccnc1)N(Cc1cccc(Cl)c1)c1ccc(-c2cn[nH]c2)cc1` [Compound 42, N-[(3-Chlorophenyl)methyl]-N-[4-(1H-pyrazol-4-yl)phenyl]-2-(3-pyridyl)acetamide], in data set [1], the “decrease in CLint compared to 36” value worked out at 2 fold.

The values are drawn from paper PMC8353992 (Journal of medicinal chemistry, 2021).
